The values below come from paper PMC6099740, “Design, Synthesis and Biological Evaluation of 6,7-Disubstituted-4-phenoxyquinoline Derivatives Bearing Pyridazinone Moiety as c-Met Inhibitors” (Molecules : A Journal of Synthetic Chemistry and Natural …, 2018).

Usually IC50 stands for the concentration that inhibits the measured activity by half. In general, melting point refers to the temperature, or range, at which the solid turns liquid.

Data set [1] addresses T1, c-Met kinase (Homo sapiens, UniProt P08581). On the set-up: method as in PMID 28384549. Conditions: previous research; cited from earlier work.
In data set [2] the target is T1, c-Met kinase. The experiment in a line: c-Met kinase inhibition assay (HTRF; mobility shift). (In TR-FRET formats the signal depends on donor and acceptor labels being close together.)
Method: All kinase assays were performed in 96-well plates in a 50 µL reaction volume. The kinase buffer contains 50 mM HEPES, pH 7.5, 10 mM MgCl2, 0.0015% Brij-35 and 2 mM DTT. The stop buffer contains 100 mM HEPES, pH 7.5, 0.015% Brij-35, 0.2% Coating Reagent 3 and 50 mM EDTA. Dilute the compounds to 500 µM by 100% DMSO, then transfer 10 µL of compound to a new 96-well plate as the intermediate plate, add 90 µL kinase buffer to each well. Transfer 5 µL of each well of the intermediate plate to 384-well plates. The following amounts of enzyme and substrate were used per well: kinase base buffer, FAM-labeled peptide, ATP and enzyme solution. Wells containing the substrate, enzyme, DMSO without compound were used as DMSO control. Wells containing just the substrate without enzyme were used as low control. Incubate at room temperature for 10 min. Add 10 µL peptide solution to each well. […] At last collect data on Caliper program and convert conversion values to inhibition values. Percent inhibition = (max − conversion)/(max − min) × 100. ‘max’ stands for DMSO control; ‘min’ stands for low control [20].
In a further data set the test system is A549 cells. The experiment in a line: MTT cytotoxicity assay, A549. The settings on record: Homo sapiens, 72 h. The format is cell-based. As for the experimental part:
(§1) The results expressed as IC50 values were summarized in Table 1, and the values were the average of at least two independent experiments.
(§2) The cancer cell lines were cultured in minimum essential medium (MEM) supplement with 10% fetal bovine serum (FBS). […] The test compounds at indicated final concentrations were added to the culture medium and the cell cultures were continued for 72 h. […] All of the compounds were tested two times in each of the cell lines. The results expressed as inhibition rates or IC50 (half-maximal inhibitory concentration) were the averages of two determinations and calculated by using the Bacus Laboratories Incorporated Slide Scanner (Bliss) software (the Bacus Laboratories Inc. Slide Scanner (BLISS) system, Lombard, IL, USA)..

The subject of another data set is MCF-7 cells. The experiment in a line: MTT cytotoxicity assay, MCF-7. The format is cell-based. Conditions: Homo sapiens, MCF7, 72 h. As for the experimental part:
as §1, §2
For orientation: Tetrazolium assays rely on reduction of a dye to a coloured formazan, in cell work by metabolically active cells.

A further data set deals with A549, HepG2, MCF-7. The experiment in a line: MTT cytotoxicity assay, range over the three cancer cell lines. Conditions: Homo sapiens; range over A549, HepG2 and MCF-7. The format is cell-based. As for the experimental part: as §1
(§3) The cancer cell lines were cultured in minimum essential medium (MEM) supplement with 10% fetal bovine serum (FBS). Approximately 4 × 10^3 cells, suspended in MEM medium, were plated onto each well of a 96-well plate and incubated in 5% CO2 at 37 °C for 24 h. The test compounds at indicated final concentrations were added to the culture medium and the cell cultures were continued for 72 h. Fresh MTT was added to each well at a terminal concentration of 5 μg/mL and incubated with cells at 37 °C for 4 h. The formazan crystals were dissolved in 100 μL DMSO each well, and the absorbency at 492 nm (for absorbance of MTT formazan) and 630 nm (for the reference wavelength) was measured with the ELISA reader. All of the compounds were tested two times in each of the cell lines. The results expressed as inhibition rates or IC50 (half-maximal inhibitory concentration) were the averages of two determinations and calculated by using the Bacus Laboratories Incorporated Slide Scanner (Bliss) software (the Bacus Laboratories Inc. Slide Scanner (BLISS) system, Lombard, IL, USA)..

The subject of data set [3] is HepG2 cells. The experiment in a line: MTT cytotoxicity assay, HepG2. The format is cell-based. The settings on record: Homo sapiens, 72 h. As for the experimental part: as §1, §3
The test system of data set [4] is HepG2 cells. The experiment in a line: Acridine orange (AO) single staining, nuclear morphology. Format: cell-based, human. The settings on record: 0.01 μM, 12 h. On the procedure:
Potential compound 53 was selected for validation and evaluation of inhibition of cell proliferation and induction of apoptosis in HepG2 cells. […] Moreover, from the results of the inverted fluorescence microscopy, it can be observed that the cells in the control group (Figure 3a) were full and the edge was clear, which was added without nothing.
The cancer cell lines were cultured in minimum essential medium (MEM) supplement with 10% fetal bovine serum (FBS). Approximately 2 × 10^4 cells, suspended in MEM medium, were plated onto each well of a 24-well plate and incubated in 5% CO2 at 37 °C for 24 h. Then the medium was removed, and 1 mL drug-free medium and 1mL medium with the test compound 7c at indicated final concentrations were added to each well in control group and test group respectively and the cell cultures were continued for 12 h. While the medium was removed, AO-PBS buffer was added to each well at a terminal concentration of 10 µg/mL and stained in dark for 10 min. Each well was washed with PBS buffer three times and observed under a fluorescence microscope.
Figure 3 The cell morphology of HepG2 cells of the control and test groups. (a) HepG2 cells treated without any compounds; (b) HepG2 cells were treated with 0.01 µM for 12 h; Changes of nuclear morphology were determined by AO staining.

Entries after “also recorded” stand apart in the source; their conditions may differ.

T1 sequence (P08581 25-1390): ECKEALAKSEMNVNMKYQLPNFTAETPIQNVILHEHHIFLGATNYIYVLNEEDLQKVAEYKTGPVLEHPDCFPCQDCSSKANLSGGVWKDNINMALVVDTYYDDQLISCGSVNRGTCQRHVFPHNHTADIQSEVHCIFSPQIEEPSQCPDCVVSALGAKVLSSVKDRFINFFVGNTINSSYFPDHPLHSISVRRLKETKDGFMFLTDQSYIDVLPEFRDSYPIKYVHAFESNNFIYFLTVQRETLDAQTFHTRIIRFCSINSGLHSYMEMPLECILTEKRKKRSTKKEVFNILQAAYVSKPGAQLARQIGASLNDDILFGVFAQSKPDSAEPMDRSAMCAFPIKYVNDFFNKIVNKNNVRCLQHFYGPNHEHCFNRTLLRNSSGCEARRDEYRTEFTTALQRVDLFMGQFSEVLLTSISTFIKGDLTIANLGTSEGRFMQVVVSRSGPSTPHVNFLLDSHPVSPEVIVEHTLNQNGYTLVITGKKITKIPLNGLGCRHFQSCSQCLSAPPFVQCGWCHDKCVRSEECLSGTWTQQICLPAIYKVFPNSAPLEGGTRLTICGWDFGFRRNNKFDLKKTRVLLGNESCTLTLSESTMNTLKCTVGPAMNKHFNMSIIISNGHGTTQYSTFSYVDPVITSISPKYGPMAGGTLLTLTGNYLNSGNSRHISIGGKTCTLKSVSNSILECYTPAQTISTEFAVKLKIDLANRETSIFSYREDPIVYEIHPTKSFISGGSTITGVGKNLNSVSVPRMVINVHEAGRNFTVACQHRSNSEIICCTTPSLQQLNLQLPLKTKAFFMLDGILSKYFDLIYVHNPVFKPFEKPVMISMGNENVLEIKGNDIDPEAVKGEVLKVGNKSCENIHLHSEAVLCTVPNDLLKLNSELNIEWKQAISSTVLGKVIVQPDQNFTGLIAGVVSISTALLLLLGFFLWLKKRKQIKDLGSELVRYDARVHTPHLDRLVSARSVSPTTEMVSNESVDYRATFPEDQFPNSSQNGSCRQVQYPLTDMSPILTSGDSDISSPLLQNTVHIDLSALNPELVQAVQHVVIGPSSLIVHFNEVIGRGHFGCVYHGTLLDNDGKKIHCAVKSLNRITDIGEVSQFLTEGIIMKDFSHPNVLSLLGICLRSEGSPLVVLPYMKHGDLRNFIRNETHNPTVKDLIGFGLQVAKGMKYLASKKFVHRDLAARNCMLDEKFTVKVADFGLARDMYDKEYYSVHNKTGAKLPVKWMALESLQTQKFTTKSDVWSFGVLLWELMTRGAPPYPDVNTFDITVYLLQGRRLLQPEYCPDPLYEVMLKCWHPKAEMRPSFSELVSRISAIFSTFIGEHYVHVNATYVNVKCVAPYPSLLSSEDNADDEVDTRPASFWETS

As for `Cc1cc(=O)n(-c2ccc(F)cc2)nc1C(=O)Nc1ccc(Oc2ccnc3[nH]ccc23)c(F)c1` [Compound 7], the “enzyme activity IC50 values” on c-Met kinase [1] is recorded as “in the nanomole level”.

For `COc1cc2c(Oc3ccc(NC(=O)c4nn(-c5ccccc5)ccc4=O)cc3F)ccnc2cc1OCCCN1CCCCC1` [Compound 37, N-(3-Fluoro-4-((6-methoxy-7-(3-(piperidin-1-yl)propoxy)quinolin-4-yl)oxy)phenyl)-4-oxo-1-phenyl-1,4-dihydropyridazine-3-carboxamide], the melting point lay in the range of 152.3 to 153.1 °C. Besides, the IC50 on c-Met kinase [2] was found to be 4 nM. This compound gave an IC50 in the data set with A549 cells of 60 ± 10 nM. The compound further gave an IC50 with MCF-7 cells of 30 ± 10 nM. The IC50 in the data set on A549, HepG2, MCF-7 was 2 to 1030 nM. In the data set with HepG2 cells [3], it took 180 ± 10 nM to reach half-maximal inhibition (IC50).

Take `COc1cc2c(Oc3ccc(NC(=O)c4nn(-c5ccc(Br)cc5)ccc4=O)cc3F)ccnc2cc1OCCCN1CCC(C)CC1` [Compound 40, 1-(4-Bromophenyl)-N-(3-fluoro-4-((6-methoxy-7-(3-(4-methylpiperidin-1-yl)propoxy)quinolin-4-yl)oxy)phenyl)-4-oxo-1,4-dihydropyridazine-3-carboxamide]: the melting point fell in the range of 220.7 to 221.4 °C. In addition, the IC50 at c-Met kinase [2] worked out at 345 nM. The IC50 in the data set on A549 cells came out at 13500 ± 1130 nM. The compound further registered an IC50 in the data set on MCF-7 cells of 9740 ± 990 nM. Besides, in the data set with HepG2 cells [3], the midpoint of inhibition, the IC50, lay at 8840 ± 950 nM.

The compound `COc1ccc(-n2ccc(=O)c(C(=O)Nc3ccc(Oc4ccnc5cc(OCCCN6CCC(C)CC6)c(OC)cc45)c(F)c3)n2)cc1` [Compound 41, N-(3-Fluoro-4-((6-methoxy-7-(3-(4-methylpiperidin-1-yl)propoxy)quinolin-4-yl)oxy)phenyl)-1-(4-methoxyphenyl)-4-oxo-1,4-dihydropyridazine-3-carboxamide] gave a melting point of 145.1 to 146.3 °C. For the same compound, the IC50 on c-Met kinase [2] worked out at 0.9 nM. This compound yielded a half-maximal inhibitory concentration (IC50) with A549 cells of 20 ± 10 nM. In the data set on MCF-7 cells, inhibition was half-maximal at 20 ± 10 nM (IC50). This compound displayed an IC50 with A549, HepG2, MCF-7 of 2 to 1030 nM. Further, the IC50 in the data set with HepG2 cells [3] was 8 ± 1 nM.

`COc1cc2c(Oc3ccc(NC(=O)c4nn(-c5ccc(F)c(Cl)c5)ccc4=O)cc3F)ccnc2cc1OCCCN1CCC(C)CC1` [Compound 42, 1-(3-Chloro-4-fluorophenyl)-N-(3-fluoro-4-((6-methoxy-7-(3-(4-methylpiperidin-1-yl)propoxy)quinolin-4-yl)oxy)phenyl)-4-oxo-1,4-dihydropyridazine-3-carboxamide] gave a melting point of 112.5 to 113.7 °C. The IC50 on c-Met kinase [2] turned out to be 1.2 nM. In addition, the IC50 in the data set with A549 cells is 5 ± 1 nM. The compound further had an IC50 in the data set on MCF-7 cells of 7 ± 1 nM. In the data set on A549, HepG2, MCF-7, this compound gave an IC50 of 2 to 1030 nM. In the data set with HepG2 cells [3], this compound had a half-inhibitory concentration (IC50) of 1030 ± 10 nM.

For the compound `COc1cc2c(Oc3ccc(NC(=O)c4nn(-c5ccc(Br)cc5F)ccc4=O)cc3F)ccnc2cc1OCCCN1CCC(C)CC1` [Compound 43, 1-(4-Bromo-2-fluorophenyl)-N-(3-fluoro-4-((6-methoxy-7-(3-(4-methylpiperidin-1-yl)propoxy)quinolin-4-yl)oxy)phenyl)-4-oxo-1,4-dihydropyridazine-3-carboxamide], the melting point was 115.8 to 117.3 °C. Further, on c-Met kinase [2], the IC50 was 2 nM. Moreover, 30 ± 10 nM corresponded to half-maximal inhibition in the data set on A549 cells (IC50). Also, 5 ± 1 nM corresponded to half-maximal inhibition with MCF-7 cells (IC50). In addition, in the data set with A549, HepG2, MCF-7, the IC50 was in the range of 2 to 1030 nM. In the data set with HepG2 cells [3], this compound yielded an IC50 of 3 ± 1 nM.

With `COc1cc2c(Oc3ccc(NC(=O)c4nn(-c5ccc(Cl)c(C(F)(F)F)c5)ccc4=O)cc3F)ccnc2cc1OCCCN1CCC(C)CC1` [Compound 44, 1-(4-Chloro-3-(trifluoromethyl)phenyl)-N-(3-fluoro-4-((6-methoxy-7-(3-(4-methylpiperidin-1-yl)propoxy)quinolin-4-yl)oxy)phenyl)-4-oxo-1,4-dihydropyridazine-3-carboxamide], the melting point lay in the range of 137.7 to 138.6 °C. Also, the IC50 at c-Met kinase [2] worked out at 19 nM. Besides, the IC50 in the data set with A549 cells was found to be 150 ± 30 nM. This compound displayed an IC50 in the data set with MCF-7 cells of 5960 ± 70 nM. The compound also gave an IC50 in the data set on HepG2 cells [3] of 650 ± 50 nM.

`COc1cc2c(Oc3ccc(NC(=O)c4nn(-c5ccccc5)ccc4=O)cc3F)ccnc2cc1OCCCN1CCC(C)CC1` [Compound 45, N-(3-Fluoro-4-((6-methoxy-7-(3-(4-methylpiperidin-1-yl)propoxy)quinolin-4-yl)oxy)phenyl)-4-oxo-1-phenyl-1,4-dihydropyridazine-3-carboxamide]: the melting point was 148.5 to 150.1 °C. The IC50 at c-Met kinase [2] came out at 187 nM. Also, the IC50 with A549 cells amounted to 2950 ± 470 nM. The compound further yielded an IC50 in the data set with MCF-7 cells of 2010 ± 300 nM. In addition, the IC50 in the data set with HepG2 cells [3] is 4660 ± 670 nM.

In turn, `COc1cc2c(Oc3ccc(NC(=O)c4nn(-c5ccc(Cl)cc5)ccc4=O)cc3F)ccnc2cc1OCCCN1CCN(C)CC1` [Compound 47, 1-(4-Chlorophenyl)-N-(3-fluoro-4-((6-methoxy-7-(3-(4-methylpiperazin-1-yl)propoxy)quinolin-4-yl)oxy)phenyl)-4-oxo-1,4-dihydropyridazine-3-carboxamide] came in with a melting point of 163.5 to 165.3 °C. Further, the IC50 at c-Met kinase [2] stood at 145 nM. Moreover, in the data set on A549 cells, inhibition was half-maximal at 20000 ± 1300 nM (IC50). Also, the concentration for half-maximal inhibition (IC50) with MCF-7 cells stood at 21100 ± 1320 nM. Further, in the data set with HepG2 cells [3], the IC50 was determined as 14200 ± 1150 nM.

In turn, `COc1cc2c(Oc3ccc(NC(=O)c4nn(-c5ccc(Br)cc5)ccc4=O)cc3F)ccnc2cc1OCCCN1CCN(C)CC1` [Compound 48, 1-(4-Bromophenyl)-N-(3-fluoro-4-((6-methoxy-7-(3-(4-methylpiperazin-1-yl)propoxy)quinolin-4-yl)oxy)phenyl)-4-oxo-1,4-dihydropyridazine-3-carboxamide] gave a melting point of 159.7 to 161.2 °C. Also, at c-Met kinase [2], the IC50 is greater than 500 nM. Further, the IC50 with A549 cells is greater than 50000 nM. For the same compound, the IC50 in the data set with MCF-7 cells is greater than 50000 nM. The compound further had an IC50 with HepG2 cells [3] greater than 50000 nM.

In turn, `COc1ccc(-n2ccc(=O)c(C(=O)Nc3ccc(Oc4ccnc5cc(OCCCN6CCN(C)CC6)c(OC)cc45)c(F)c3)n2)cc1` [Compound 49, 1-(4-((l1-Oxidanyl)-l5-methyl)phenyl)-N-(3-fluoro-4-((6-methoxy-7-(3-(4-methylpiperazin-1-yl)propoxy)quinolin-4-yl)oxy)phenyl)-4-oxo-1,4-dihydropyridazine-3-carboxamide] came in with a melting point of 167.5 to 169.1 °C. In addition, the IC50 on c-Met kinase [2] was determined as 78 nM. This compound registered an IC50 with A549 cells of 9120 ± 960 nM. In the data set with MCF-7 cells, this compound yielded an IC50 of 8120 ± 910 nM. Moreover, in the data set with HepG2 cells [3], the IC50 turned out to be 3680 ± 570 nM.

In the case of `COc1cc2c(Oc3ccc(NC(=O)c4nn(-c5ccc(Cl)c(C(F)(F)F)c5)ccc4=O)cc3F)ccnc2cc1OCCCN1CCN(C)CC1` [Compound 52, 1-(4-Chloro-3-(trifluoromethyl)phenyl)-N-(3-fluoro-4-((6-methoxy-7-(3-(4-methylpiperazin-1-yl)propoxy)quinolin-4-yl)oxy)phenyl)-4-oxo-1,4-dihydropyridazine-3-carboxamide], the melting point lay in the range of 211.7 to 212.6 °C. For the same compound, at c-Met kinase [2], the IC50 was determined as 0.8 nM. This compound also returned an IC50 in the data set with A549 cells of 40 ± 10 nM. The IC50 with MCF-7 cells was found to be 150 ± 20 nM. The same compound showed an IC50 with A549, HepG2, MCF-7 of 2 to 1030 nM. This compound also had an IC50 in the data set with HepG2 cells [3] of 330 ± 30 nM.

`COc1cc2c(Oc3ccc(NC(=O)c4nn(-c5ccccc5)ccc4=O)cc3F)ccnc2cc1OCCCN1CCN(C)CC1` [Compound 53, N-(3-Fluoro-4-((6-methoxy-7-(3-(4-methylpiperazin-1-yl)propoxy)quinolin-4-yl)oxy)phenyl)-4-oxo-1-phenyl-1,4-dihydropyridazine-3-carboxamide]: the “Inhibition of proliferation and induction of apoptosis (AO staining)” value in the data set on HepG2 cells [4] was “significantly inhibited HepG2 cells proliferation and induced apoptosis; also recorded: could induce remarkable apoptosis of HepG2 cells”. Further, the concentration for half-maximal inhibition (IC50) is 0.6 nM at c-Met kinase [2]; 3 ± 1 nM in the data set on A549 cells; 6 ± 1 nM in the data set on MCF-7 cells; 2 to 1030 nM in the data set with A549, HepG2, MCF-7; 490 ± 30 nM with HepG2 cells [3].
